These results are taken from PMC4199632, “Exploring the Anti-Cancer Activity of Novel Thiosemicarbazones Generated through the Combination of Retro-Fragments: Dissection of Critical Structure-Activity Relationships” (PLoS ONE, 2014).

Read-outs that look alike come from different tables or passages of the source.

Data set [1] concerns HCT116 p53+/+, HCT116 p53−/−, Raji, HeLa, SK-N-MC and NHDF cells. In words: Proliferation assay, ranges stated over several cell-types. It is filed as cell-based, human. Conditions: for IC50: Homo sapiens; for Therapeutic index, NHDF relative to HCT116 cells: range over HCT116 p53+/+ and p53−/− and over the compounds named. As to the method:
The human cancer cell types (neuroepithelioma (SK-N-MC), colon cancer (HCT116 with wild-type p53 (p53^+/+)), Burkitt's lymphoma (Raji) and cervical carcinoma (HeLa)) cells and normal human dermal fibroblasts (NHDF) were obtained from the American Type Culture Collection (ATCC, Manassas, VA, USA). HCT116 null p53 (p53^−/−) cells were obtained from the Maria Sklodowska-Curie Memorial Cancer Center and Institute of Oncology, Poland.
The SK-N-MC cells were cultured in minimum essential medium (MEM; Life Technologies, Grand Island, New York, USA) containing 10% (v/v) fetal bovine serum (FBS; Life Technologies), 1 mM sodium pyruvate (Life Technologies), 1% (v/v) non-essential amino acids (Life Technologies), 2 mM L-glutamine (Life Technologies), 100 U/mL penicillin (Life Technologies), 100 µg/mL streptomycin (Life Technologies) and 0.28 µg/mL fungizone (Bristol Myers Squibb Pharmaceuticals, Montreal, Canada). The HCT116 and NHDF cells were grown in Dulbecco's modified Eagle's medium (DMEM; Sigma-Aldrich) supplemented with 12% (v/v) heat-inactivated FBS (HCT116; Life Technologies) or 15% (v/v) FBS (NHDF; Life Technologies), 100 µg/mL of gentamicin (Polfa Warszawa S.A., Warsaw, Poland), 100 µg/mL of streptomycin (Polfa) and 100 U/mL of penicillin (Polfa). The Raji and HeLa cells were cultured in Roswell Park Memorial Institute medium (RPMI-1640; Sigma-Aldrich) with the addition of 10% (v/v) heat-inactivated FBS (Life Technologies) and the supplements described for SK-N-MC cells above. All cell lines were cultured under standard conditions at 37°C in a humidified atmosphere at 5% CO2 and were subcultured every 3–4 days as required.
The cells were seeded in 96-well plates (SK-N-MC: 1.5×10^4 cells/well; HeLa: 5.0×10^3 cells/well; Raji: 3.0×10^3 cells/well; HCT116: 3.5×10^3 cells/well; NHDF: 3.0×10^3 cells/well) 24 h prior to the addition of the novel compounds. The assays were performed using a 72 h (SK-N-MC, Raji, HeLa) or 96 h (HCT 116, NHDF) incubation period with the agents at 37°C. […] Additionally, DFO and Dp44mT were included as positive controls in all experiments as their activity is well characterized, [42], [50].
Chelator stock solutions were prepared in DMSO and diluted in media so that the final [DMSO] <0.05%. The results were expressed as a percentage of the control and the resulting IC50 values were calculated using GraphPad Prism 5 (GraphPad Software, Inc., La Jolla, CA, USA). The IC50 was defined as the concentration necessary to reduce the absorbance to 50% of the untreated control. Each individual compound was tested in triplicate in a single experiment, with each experiment being repeated three times. After incubation of HCT 116 and NHDF cells with the tested compounds, 20 µL of the CellTiter 96 Aqueous One Solution - MTS (Promega, Madison, WI, USA) solution was added to each well (with 100 µL of DMEM without phenol red) and incubated for 1 h/37°C. The optical density of the samples was analyzed at 490 nm.
MTT (3-[4,5-dimethylthiazol-2-yl]-2,5-diphenyltetrazolium bromide) was used to evaluate the anti-proliferative effects of the chelators in SK-N-MC and Raji cells. Following incubation with the investigated compounds, 10 µL of MTT (5 mg/mL in PBS; Sigma-Aldrich) was added to each well. After a 2 h (SK-N-MC) or 4 h (Raji) incubation, the plates were centrifuged, and the cells were lysed with 100 µL of 10% SDS-50% isobutanol in 0.01 M HCl (SK-N-MC) or DMSO (Raji). The absorbance was measured at 570 nm. The anti-proliferative effects of these novel agents on HeLa cells were estimated using crystal violet staining (0.5% crystal violet solution for 10 min). Finally, the wells were rinsed with water and the cells were lysed with 2% SDS. The optical density of the samples was analyzed at 595 nm.

A short description of data set [2]: Ascorbate oxidation assay (iron complexes). Format: biochemical. Conditions: iron complex; for Ascorbate oxidation (% of the control): FeIII 10 µM, ascorbate 100 µM. The procedure:
The ability of the iron complexes of the novel ligands to mediate the oxidation of the physiological substrate, ascorbate, was examined using established methods, [18], [22], [52], [53]. Ascorbic acid (100 µM) was prepared immediately prior to each experiment and was incubated in the presence of Fe^III (10 µM; as FeCl3), the chelator (1–60 µM) and a 50-fold molar excess of citrate (500 µM). The absorbance at 265 nm was measured after 10 and 40 min and the difference in absorbance at these time points was calculated. The results of these experiments were expressed as iron-binding equivalents (IBE) due to the different denticity of the chelators examined. The chelators, Dp44mT, DFO and ethylenediaminetetraacetic acid (EDTA) were used as controls as the ability of their iron complexes to oxidize ascorbate has been extensively characterized, [15], [52], [53].
The ability of the iron complexes of the novel TSCs to catalyze the oxidation of the physiological substrate, ascorbate, was important to assess as redox cycling may play a critical role in their anti-proliferative activity, [15], [18], [52], [53]. Thus, the oxidation of ascorbate mediated by the iron complexes of series 1–6 were examined in comparison to the iron complexes of the control compounds, DFO, EDTA and Dp44mT, as the ability of the latter to oxidize ascorbate is well characterized, [15], [52], [53], [68]. The results were expressed as a percentage of the control (no chelator) at iron-binding equivalents (IBEs) of 0.1 (excess “free” iron), 1 (iron-chelator complexes with a fully filled coordination sphere), or 3 (excess free chelator), due to the different denticity of the chelators examined (Fig. 10).
Figure 10 Effect of the iron complexes of (A) series 1, (B) series 2, (C) series 3, (D) series 4, (E) series 5 and (F) series 6 chelators, relative to DFO, Dp44mT and EDTA, on ascorbate oxidation. Chelators at iron-binding equivalent (IBE) ratios of 0.1, 1, and 3 were incubated in the presence of Fe^III (10 µM) and ascorbate (100 µM). The UV-Vis absorbance at 265 nm was recorded after 10 and 40 min, and the difference between the time points was calculated. Results are mean ±SD (3 experiments).

On the set-up of data set [3]: method as in PMID 17003122. The note with it: high, non-optimal doses; cited from earlier work.
In data set [4] the test system is murine M109 lung carcinoma. Further details: method as in PMID 15150082. The note with it: five day treatment, 0.4 mg/kg, mice; cited from earlier work.
Where [5] appears, read: HCT-116, range over HCT116 p53+/+ and p53−/− cells and over the compounds named, read-out: IC50 range in HCT116 cells.

With `CN(C(=S)N/N=C/c1ccc2ccccc2n1)C1CCCCC1` [2f], in data set [1] (setting [5]), the IC50 (as a rule, the concentration at which inhibition is half-maximal) lay in the range of 0.8 to 90 nM. For the same compound, the “Therapeutic index, NHDF relative to HCT116 cells” value in data set [1] is recorded as 0.4–0.8.

Turning to `S=C(NN=C(c1ccccn1)c1ccccn1)N1CCN(c2cnccn2)CC1` [1e], in data set [2] (IBE 3), the “Ascorbate oxidation (% of the control)” value is 200–265%.

Regarding `CN(C)C(=S)NN=C(c1ccccn1)c1ccccn1` [Dp44mT, di-2-pyridylketone 4,4-dimethyl-3-thiosemicarbazone, reference compound], the Toxicity finding result in data set [3] was “cardiac fibrosis”. Besides, the “Growth of murine M109 lung carcinoma (% of the control)” value in data set [4] is given as 47%. Moreover, the “Ascorbate oxidation (% of the control)” value in data set [2] (IBE 0.1) is 129%; in data set [2] (IBE 1), 203%; in data set [2] (IBE 3), 196%. Moreover, the IC50 in data set [1] (range over the cancer cell-types of Table 1, read-out: IC50 range, anti-cancer activity) was 2 to 40 nM.

For `S=C(N/N=C/c1ccc2ccccc2n1)N1CCN(c2ccccc2)CC1` [2b], the IC50 in data set [1] (setting [5]) lay within 0.8 to 90 nM. The “Therapeutic index, NHDF relative to HCT116 cells” value in data set [1] is 0.4–0.8.

With `CC(=O)N(O)CCCCCNC(=O)CCC(=O)N(O)CCCCCNC(=O)CCC(=O)N(O)CCCCCN` [DFO, desferrioxamine, reference compound], the “Ascorbate oxidation (% of the control)” value in data set [2] (IBE 1) is recorded as 47%; in data set [2] (IBE 3), 23%.

`CN(C(=S)N/N=C/c1cnc2ccccc2n1)C1CCCCC1` [5f]: the “Ascorbate oxidation compared with controls” value in data set [2] (IBE 3) is “decreased ascorbate oxidation relative to the control”.

On to `CCN1CCN(C(=S)N/N=C/c2ccc3ccccc3n2)CC1` [2a], for which the “Ascorbate oxidation (% of the control)” value in data set [2] (IBE 3) is 200–265%.

Take `CN(C(=S)N/N=C/c1ccccc1O)C1CCCCC1` [6f]: the “Ascorbate oxidation compared with controls” value in data set [2] (IBE 3) is “decreased ascorbate oxidation relative to the control”.
